Experimental data: patent US8993554B2, “Tetrahydroquinoline derivatives useful as bromodomain inhibitors” (GlaxoSmithKline LLC, priority 2011, dated 2015)
Where a name gives a salt, the structure may show the parent alone.

System: LPS induced IL-6 secretion from whole blood
Assay: Measurement of LPS Induced IL-6 Secretion from Whole Blood
Type: cell-based
Settings: IL-6 by immunoassay, LPS 200 ng/ml, 24 hours
Experimental: Activation of monocytic cells by agonists of toll-like receptors such as bacterial lipopolysaccharide (LPS) results in production of key inflammatory mediators including IL-6. Such pathways are widely considered to be central to the pathophysiology of a range of auto-immune and inflammatory disorders.
Compounds to be tested are diluted to give a range of appropriate concentrations of which 1 μl of the diluted stocks is added to a 96 well plate. Following addition of whole blood (130 μl) the plates are incubated at 37 degrees (5% CO2) for 30 min before the addition of 10 μl of 2.8 ug/ml LPS, diluted in complete RPMI 1640 (final concentration=200 ng/ml), to give a total volume of 140 μl per well. After further incubation for 24 hours at 37 degrees, 140 μl of PBS are added to each well. The plates are sealed, shaken for 10 minutes and then centrifuged (2500 rpm×10 min). 100 μl of the supernatant are removed and IL-6 levels assayed by immunoassay (typically by MesoScale Discovery technology) either immediately or following storage at −20 degrees. Concentration response curves for each compound was generated from the data and an IC50 value was calculated.

| IC50 [µM] | Compound |
| --- | --- |
| 0.0501 to 3.16 | CC(=O)N1c2ccc(-c3ccc(C(=O)N[C@H](C)CO)nc3)cc2[C@H](Nc2ccc(C#N)cn2)C[C@@H]1C [Example 32, 5-((2S,4R)-1-acetyl-4-((5-cyanopyridin-2-yl)amino)-2-methyl-1,2,3,4-tetrahydroquinolin-6-yl)-N—((R)-1-hydroxypropan-2-yl)picolinamide] |
| 0.0501 to 3.16 | CC(=O)N1c2ccc(-c3ccc(C(=O)N4CCOCC4)cn3)cc2[C@H](Nc2cccc(Cl)c2)C[C@@H]1C [Example 63] |
| 0.0501 to 3.16 | CC(=O)N1c2ccc(-c3ccc(C(=O)NCCO)cc3)cc2[C@H](Nc2ccc(Cl)cc2)C[C@@H]1C [Example 40, 4-((2S,4R)-1-acetyl-4-((4-chlorophenyl)amino)-2-methyl-1,2,3,4-tetrahydroquinolin-6-yl)-N-(2-hydroxyethyl)benzamide] |
| 0.0501 to 3.16 | CC(=O)N1c2ccc(-c3ccc(C(=O)NCCO)cc3)cc2[C@H](Nc2ccc(C#N)cn2)C[C@@H]1C [Example 14, 4-((2S,4R)-1-acetyl-4-((5-cyanopyridin-2-yl)amino)-2-methyl-1,2,3,4-tetrahydroquinolin-6-yl)-N-(2-hydroxyethyl)benzamide] |
| 0.0501 to 3.16 | CC(=O)N1c2ccc(-c3ccc(CCC(=O)NCCO)cc3)cc2[C@H](Nc2ccc(C#N)cn2)C[C@@H]1C [Example 2, 3-(4-((2S,4R)-1-Acetyl-4-((5-cyanopyridin-2-yl)amino)-2-methyl-1,2,3,4-tetrahydroquinolin-6-yl)phenyl)-N-(2-hydroxyethyl)propanamide] |
| 0.0501 to 3.16 | CC(=O)N1c2ccc(-c3ccc(C(=O)NCCN)cc3)cc2[C@H](NC(=O)OC(C)C)C[C@@H]1C [Example 6, Isopropyl ((2S,4R)-1-acetyl-6-(4-((2-aminoethyl)carbamoyl)phenyl)-2-methyl-1,2,3,4-tetrahydroquinolin-4-yl)carbamate hydrochloride] |
| 0.0501 to 3.16 | CC(=O)N1c2ccc(-c3ccc(C(=O)NCCN(C)C)cn3)cc2[C@H](Nc2ccc(C#N)cn2)C[C@@H]1C [Example 10, 6-((2S,4R)-1-acetyl-4-((5-cyanopyridin-2-yl)amino)-2-methyl-1,2,3,4-tetrahydroquinolin-6-yl)-N-(2-(dimethylamino)ethyl)nicotinamide] |
| 0.0501 to 3.16 | CC(=O)N1c2ccc(-c3ccc(C(=O)NCCN(C)C)cc3)cc2[C@H](NC(=O)OC(C)C)C[C@@H]1C [Example 7, Isopropyl ((2S,4R)-1-acetyl-6-(4-((2-(dimethylamino)ethyl)carbamoyl)phenyl)-2-methyl-1,2,3,4-tetrahydroquinolin-4-yl)carbamate] |
| 0.0501 to 3.16 | CC(=O)N1c2ccc(-c3ccc(CC(=O)NCCN)cc3)cc2[C@H](NC(=O)OC(C)C)C[C@@H]1C [Example 9, Isopropyl ((2S,4R)-1-acetyl-6-(4-(2-((2-aminoethyl)amino)-2-oxoethyl)phenyl)-2-methyl-1,2,3,4-tetrahydroquinolin-4-yl)carbamate hydrochloride] |
| 0.0501 to 3.16 | CC(=O)N1c2ccc(-c3ccc(C(=O)N4CCOCC4)cn3)cc2[C@H](Nc2ccc(C)cn2)C[C@@H]1C [Example 59, 1-((2S,4R)-2-methyl-4-((5-methylpyridin-2-yl)amino)-6-(5-(morpholine-4-carbonyl)pyridin-2-yl)-3,4-dihydroquinolin-1(2H)-yl)ethanone] |
| 0.0501 to 3.16 | CC(=O)N1c2ccc(-c3ccc(CC(=O)NCCN(C)C)cc3)cc2[C@H](Nc2ccc(C#N)cn2)C[C@@H]1C [Example 5, 2-(4-((2S,4R)-1-Acetyl-4-((5-cyanopyridin-2-yl)amino)-2-methyl-1,2,3,4-tetrahydroquinolin-6-yl)phenyl)-N-(2-(dimethylamino)ethyl)acetamide] |
| 0.0501 to 3.16 | CC(=O)N1c2ccc(-c3ccc(C(=O)NC[C@H](C)O)cc3)cc2[C@H](Nc2ccc(Cl)cc2)C[C@@H]1C [Example 42, 4-((2S,4R)-1-acetyl-4-((4-chlorophenyl)amino)-2-methyl-1,2,3,4-tetrahydroquinolin-6-yl)-N—((S)-2-hydroxypropyl)benzamide] |
| 0.0501 to 3.16 | CC(=O)N1c2ccc(-c3ccc(C(=O)N4CCOCC4)nc3)cc2[C@H](Nc2ccc(C)cn2)C[C@@H]1C [Example 51, 1-((2S,4R)-2-methyl-4-((5-methylpyridin-2-yl)amino)-6-(6-(morpholine-4-carbonyl)pyridin-3-yl)-3,4-dihydroquinolin-1(2H)-yl)ethanone] |
| 0.0501 to 3.16 | CC(=O)N1c2ccc(-c3ccc(C(=O)N4CCOCC4)cn3)cc2[C@H](Nc2ccccn2)C[C@@H]1C [Example 61, 1-((2S,4R)-2-methyl-6-(5-(morpholine-4-carbonyl)pyridin-2-yl)-4-(pyridin-2-ylamino)-3,4-dihydroquinolin-1(2H)-yl)ethanone] |
| 0.0501 to 3.16 | CC(=O)N1c2ccc(-c3ccc(C(=O)NCCN(C)C)nc3)cc2[C@H](Nc2ccc(C#N)cn2)C[C@@H]1C [Example 28, 5-((2S,4R)-1-acetyl-4-((5-cyanopyridin-2-yl)amino)-2-methyl-1,2,3,4 tetrahydroquinolin-6-yl)-N-(2-(dimethylamino)ethyl)picolinamide] |
| 0.0501 to 3.16 | CC(=O)N1c2ccc(-c3ccc(C(=O)N4CCOCC4)cc3)cc2[C@H](Nc2ccc(C)cn2)C[C@@H]1C [Example 56, 1-((2S,4R)-2-methyl-4-((5-methylpyridin-2-yl)amino)-6-(4-(morpholine-4-carbonyl)phenyl)-3,4-dihydroquinolin-1(2H)-yl)ethanone formate] |
| 0.0501 to 3.16 | CC(=O)N1c2ccc(-c3ccc(C(=O)NC(CO)CO)cn3)cc2[C@H](Nc2ccccn2)C[C@@H]1C [Example 25, 6-((2S,4R)-1-acetyl-2-methyl-4-(pyridin-2-ylamino)-1,2,3,4-tetrahydroquinolin-6-yl)-N-(1,3-dihydroxypropan-2-yl)nicotinamide] |
| 0.0501 to 3.16 | CC(=O)N1c2ccc(-c3ccc(C(=O)NCCO)cn3)cc2[C@H](Nc2ccccn2)C[C@@H]1C [Example 24, 6-((2S,4R)-1-acetyl-2-methyl-4-(pyridin-2-ylamino)-1,2,3,4-tetrahydroquinolin-6-yl)-N-(2-hydroxyethyl)nicotinamide] |
| 0.0501 to 3.16 | CC(=O)N1c2ccc(-c3ccc(C(=O)NCCO)nc3)cc2[C@H](Nc2ccc(C#N)cn2)C[C@@H]1C [Example 29, 5-((2S,4R)-1-acetyl-4-((5-cyanopyridin-2-yl)amino)-2-methyl-1,2,3,4-tetrahydroquinolin-6-yl)-N-(2-hydroxyethyl)picolinamide] |
| 0.0501 to 3.16 | CC(=O)N1c2ccc(-c3ccc(C(=O)NCCN(C)C)cc3)cc2[C@H](Nc2ccc(C#N)cn2)C[C@@H]1C [Example 16, 4-((2S,4R)-1-acetyl-4-((5-cyanopyridin-2-yl)amino)-2-methyl-1,2,3,4-tetrahydroquinolin-6-yl)-N-(2-(dimethylamino)ethyl)benzamide dihydrochloride] |
